In ChEMBL document CHEMBL4342422, “Synthetic strategy and SAR studies of C-glucoside heteroaryls as SGLT2 inhibitor: A review” (Eur J Med Chem, 2019):
Each block holds one compound with its values, some of them ahead of it.

Key:
[1] = system: Homo sapiens; assay: Antidiabetic activity in human T2DM patients assessed as fasting blood glucose level at 50 mg, po for 24 weeks; format: functional
[2] = system: Homo sapiens; assay: Antidiabetic activity in human T2DM patients assessed as reduction in HbA1c level at 50 mg, po for 24 weeks relative to control; format: functional; set-up: scale not given: the % may be the effect or the level left
[3] = system: Homo sapiens; assay: Antidiabetic activity in human T2DM patients assessed as reduction in body weight at 50 mg, po for 24 weeks; format: functional
[4] = Toxicity in human T2DM patients assessed as reduction in systolic blood pressure at 5 mg, po for 4 weeks; format: organism-based; conditions: in vivo, 672 h
[5] = Tmax in human at 5 mg, po; format: ADME; conditions: in vivo
[6] = Toxicity in human T2DM patients assessed as reduction in systolic blood pressure at 10 mg, po for 4 weeks; format: organism-based; conditions: in vivo, 672 h
[7] = system: Homo sapiens; assay: Antidiabetic activity in human T2DM patients assessed as reduction in HbA1c level at 25 mg, po for 12 weeks relative to control; format: functional; set-up: scale not given: the % may be the effect or the level left
[8] = Toxicity in human assessed as urinary tract infection at 200 to 400 mg, po for 52 weeks; format: organism-based; conditions: in vivo, 8736 h
[9] = system: Homo sapiens; assay: Antidiabetic activity in human T2DM patients assessed as reduction in body weight at 20 mg, po for 24 weeks; format: functional
[10] = system: Homo sapiens; assay: Antidiabetic activity in human T2DM patients assessed as reduction in HbA1c level at 20 mg, po for 24 weeks relative to control; format: functional; set-up: scale not given: the % may be the effect or the level left
[11] = Toxicity in human T2DM patients assessed as reduction in blood pressure at 20 mg, po for 24 weeks; format: organism-based; conditions: in vivo, 4032 h
[12] = system: Homo sapiens; assay: Antidiabetic activity in human T2DM patients assessed as reduction in HbA1c level at 25 mg, po relative to control; format: functional; set-up: scale not given: the % may be the effect or the level left
[13] = Half life in human; format: ADME
[14] = system: Homo sapiens; assay: Antidiabetic activity in human T2DM patients assessed as reduction in body weight at 10 to 25 mg, po; format: functional
[15] = Toxicity in human T2DM patients assessed as reduction in diastolic blood pressure at 25 mg, po; conditions: in vivo
[16] = Toxicity in human T2DM patients assessed as reduction in systolic blood pressure at 25 mg, po; conditions: in vivo
[17] = system: Homo sapiens; assay: Antidiabetic activity in human T2DM patients assessed as reduction in HbA1c level at 10 mg, po relative to control; format: functional; set-up: scale not given: the % may be the effect or the level left
[18] = Elimination half life in human at 1 to 25 mg, po; format: ADME; conditions: in vivo, read-out: LambdaZ

SMILES: OC[C@H]1O[C@@H](c2ccc(F)c(Cc3cc4ccccc4s3)c2)[C@H](O)[C@@H](O)[C@@H]1O [IPRAGLIFLOZIN]
Activity [1]: 32.89 mg/dL
Activity [2]: 0.79%
Activity [3]: 1.1 kg

Tmax [5]: 1 h
SMILES: CCOc1ccc(Cc2cc([C@]34OC[C@](CO)(O3)[C@@H](O)[C@H](O)[C@H]4O)ccc2Cl)cc1 [ERTUGLIFLOZIN]
Activity [4]: 2.59 to 2.86 mmHg
Activity [6]: 2.59 to 2.86 mmHg
Activity [7]: -0.72%

SMILES: CCOc1ccc(Cc2cc([C@@H]3O[C@H](SC)[C@@H](O)[C@H](O)[C@H]3O)ccc2Cl)cc1 [SOTAGLIFLOZIN]
Activity [8]: 4.2 to 6.9%

SMILES: CCc1ccc(Cc2ccc3c(c2)[C@]2(OC3)O[C@H](CO)[C@@H](O)[C@H](O)[C@H]2O)cc1 [TOFOGLIFLOZIN ANHYDROUS]
Activity [9]: 2.9 kg
Activity [10]: 1.017%
Activity [11]: 2.1 mmHg

half-life [13]: 1 h
SMILES: OC[C@H]1O[C@@H](c2ccc(Cl)c(Cc3ccc(O[C@@H]4CCOC4)cc3)c2)[C@H](O)[C@@H](O)[C@@H]1O
Activity [12]: 1.064%
Activity [14]: 1.85 kg
Activity [15]: -1.04 mmHg
Activity [16]: 4.19 mmHg
Activity [17]: 0.929%

half-life [18]: 9.2 to 13.8 h
SMILES: CCOc1ccc(Cc2cc([C@@H]3S[C@H](CO)[C@@H](O)[C@H](O)[C@H]3O)c(OC)cc2C)cc1 [LUSEOGLIFLOZIN]
